The source of these data is patent US12098386B2, “Use of germ cells for preparing a micro hair follicle” (L'OREAL, priority 2016, dated 2024).

This assay concerns germ cells. Nature of the assay: Culture-amplification of germ cells on 3T3 feeder layer in Green 7F medium with or without ROCK inhibitor. In kind it is cell-based. From the text:
The germ cell region, called the bulge (FIG. 1), is extracted from the connective tissue sheath (FIG. 2) and then placed in a petri dish containing 3T3i cells (FIG. 3).
The hair follicles are extracted from a surgical residue of scalp. Said residue is first cut into 5 mm^2 portions and then sectioned using a scalpel between the dermis and the hypodermis.
The follicles are extracted using ophthalmic surgery forceps and are then sectioned just above the papilla with a scalpel. The bulb is then recovered. At this stage, the bulb comprises two compartments: the dermal compartment (dermal papilla and connective tissue sheath) and the matrix cells which form a cell mass.
The epithelial part is separated from the dermal part using perfusion needles. Only the epithelial part is cultured.
The MEM medium+10% FCS+7F (called Green 7F medium) has the following composition:
After microdissection, the hair follicles in the telogen phase are deposited in Petri dishes 60 mm in diameter, seeded beforehand with 1 million 3T3 cells, and covered with the complete Green 7F culture medium; a culture of germ cells at confluence is obtained.
The telogen hair with the non-dissociated germ cell clump are isolated and deposited on a 3T3 feeder layer (FIG. 3). After 3 d of culture, the cells begin to proliferate in the form of a colony around the germ clump (FIG. 4). The cells reach subconfluence in 7 days (FIG. 5). […]

SMILES strings stand for the structures.

For the compound `C[C@@H](N)[C@H]1CC[C@H](C(=O)Nc2ccncc2)CC1` [Y27632], the “Differentiation of germ cells into marker-positive keratinocytes (K15, CD29, CD200)” value (germ cells cultured in 7F medium containing the rock inhibitor (FIG. 6)) is “keratinocytes that are positive for the K15, CD29 and CD200 markers”. For the same compound, the “Proliferation of the germ cells (reaching confluence)” value (green 7F medium, Y27632 at 10 μM, in the same medium without the rock inhibitor the cells do not proliferate (FIG. 7a/7b)) is “very rapidly reaching confluence”.
